# Reference: patent US4868321A, “Isothiocyanate intermediates” (FMC Corporation, priority 1988, dated 1989)
# Structures can show the parent of a compound that is named as a salt.
# Experiments:
# Format in all cases: in vivo
# Cotton [1] = assay: Preemergence Herbicidal Activity, Cotton; settings: Gossypium hirsutum, pre-emergence; for plant injury at 2000 g/ha: 2.0 kg/ha
# Method in brief: (§1)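 Applications are made pre- or postemergence from 50/50 acetone/water solutions of each compound. Effect is recorded as % C at the stated kg/ha rate.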
# Soybean [2] = assay: Preemergence Herbicidal Activity, Soybean; settings: Glycine max, pre-emergence; for plant injury at 2000 g/ha: 2.0 kg/ha
# Method in brief: (§2)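 Application rate is expressed per hectare in kilograms. Values are percent control.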
# Field Corn [3] = assay: Preemergence Herbicidal Activity, Field Corn; settings: Zea mays, pre-emergence; for plant injury at 2000 g/ha: 2.0 kg/ha
# Method in brief: as §2
# Rice [4] = assay: Preemergence Herbicidal Activity, Rice; settings: Oryza sativa, pre-emergence; for plant injury at 2000 g/ha: 2.0 kg/ha
# Method in brief: as §2
# Wheat [5] = assay: Preemergence Herbicidal Activity, Wheat; settings: Triticum aestivum, pre-emergence; for plant injury at 2000 g/ha: 2.0 kg/ha
# Method in brief: as §2
# Field Bindweed [6] = assay: Preemergence Herbicidal Activity, Field Bindweed; settings: pre-emergence; for pest or weed control at 2000 g/ha: 2.0 kg/ha
# Method in brief: as §1
# Morningglory [7] = assay: Preemergence Herbicidal Activity, Morningglory; settings: Ipomoea, pre-emergence; for pest or weed control at 2000 g/ha: 2.0 kg/ha
# Method in brief: as §1
# Velvetleaf [8] = assay: Preemergence Herbicidal Activity, Velvetleaf; settings: Abutilon theophrasti, pre-emergence; for pest or weed control at 2000 g/ha: 2.0 kg/ha
# Method in brief: as §1
# Barnyardgrass [9] = assay: Preemergence Herbicidal Activity, Barnyardgrass; settings: Echinochloa crus-galli, pre-emergence; for pest or weed control at 2000 g/ha: 2.0 kg/ha
# Method in brief: (§3)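 The reported numbers are percent control, obtained after treatment at rates quantified as kilograms per hectare.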
# Green Foxtail [10] = assay: Preemergence Herbicidal Activity, Green Foxtail; settings: Setaria viridis, pre-emergence; for pest or weed control at 2000 g/ha: 2.0 kg/ha
# Method in brief: as §3
# Johnsongrass [11] = assay: Preemergence Herbicidal Activity, Johnsongrass; settings: Sorghum halepense, pre-emergence; for pest or weed control at 2000 g/ha: 2.0 kg/ha
# Method in brief: as §3
# Cotton [12] = assay: Postemergence Herbicidal Activity, Cotton; settings: Gossypium hirsutum, post-emergence; for plant injury at 2000 g/ha: 2.0 kg/ha
# Method in brief: as §1
# Soybean [13] = assay: Postemergence Herbicidal Activity, Soybean; settings: Glycine max, post-emergence; for plant injury at 2000 g/ha: 2.0 kg/ha
# Method in brief: as §2
# Field Corn [14] = assay: Postemergence Herbicidal Activity, Field Corn; settings: Zea mays, post-emergence; for plant injury at 2000 g/ha: 2.0 kg/ha
# Method in brief: as §2
# Rice [15] = assay: Postemergence Herbicidal Activity, Rice; settings: Oryza sativa, post-emergence; for plant injury at 2000 g/ha: 2.0 kg/ha
# Method in brief: as §2
# Wheat [16] = assay: Postemergence Herbicidal Activity, Wheat; settings: Triticum aestivum, post-emergence; for plant injury at 2000 g/ha: 2.0 kg/ha
# Method in brief: as §2
# Field Bindweed [17] = assay: Postemergence Herbicidal Activity, Field Bindweed; settings: post-emergence; for pest or weed control at 2000 g/ha: 2.0 kg/ha
# Method in brief: as §1
# Morningglory [18] = assay: Postemergence Herbicidal Activity, Morningglory; settings: Ipomoea, post-emergence; for pest or weed control at 2000 g/ha: 2.0 kg/ha
# Method in brief: as §1
# Velvetleaf [19] = assay: Postemergence Herbicidal Activity, Velvetleaf; settings: Abutilon theophrasti, post-emergence; for pest or weed control at 2000 g/ha: 2.0 kg/ha
# Method in brief: as §1
# Barnyardgrass [20] = assay: Postemergence Herbicidal Activity, Barnyardgrass; settings: Echinochloa crus-galli, post-emergence; for pest or weed control at 2000 g/ha: 2.0 kg/ha
# Method in brief: as §3
# Green Foxtail [21] = assay: Postemergence Herbicidal Activity, Green Foxtail; settings: Setaria viridis, post-emergence; for pest or weed control at 2000 g/ha: 2.0 kg/ha
# Method in brief: as §3
# Johnsongrass [22] = assay: Postemergence Herbicidal Activity, Johnsongrass; settings: Sorghum halepense, post-emergence; for pest or weed control at 2000 g/ha: 2.0 kg/ha
# Method in brief: as §3
compound,measurement,setting,value
"O=c1n(CCCF)nnn1-c1cc(NS(=O)(=O)C(F)(F)F)c(Cl)cc1F [Compound 32, 1-[4-Chloro-2-fluoro-5-(N--trifluoromethylsulfonylamino)phenyl]-1,4-dihydro-4-(3-fluoropropyl)-5H--tetrazol-5-one potassium salt]",plant injury at 2000 g/ha,Cotton [1],100%
same,plant injury at 2000 g/ha,Soybean [2],40%
same,plant injury at 2000 g/ha,Field Corn [3],50%
same,plant injury at 2000 g/ha,Rice [4],95%
same,plant injury at 2000 g/ha,Wheat [5],10%
same,pest or weed control at 2000 g/ha,Field Bindweed [6],100%
same,pest or weed control at 2000 g/ha,Morningglory [7],100%
same,pest or weed control at 2000 g/ha,Velvetleaf [8],100%
same,pest or weed control at 2000 g/ha,Barnyardgrass [9],95%
same,pest or weed control at 2000 g/ha,Green Foxtail [10],60%
same,pest or weed control at 2000 g/ha,Johnsongrass [11],80%
same,plant injury at 2000 g/ha,Cotton [12],100%
same,plant injury at 2000 g/ha,Soybean [13],100%
same,plant injury at 2000 g/ha,Field Corn [14],70%
same,plant injury at 2000 g/ha,Rice [15],40%
same,plant injury at 2000 g/ha,Wheat [16],40%
same,pest or weed control at 2000 g/ha,Field Bindweed [17],100%
same,pest or weed control at 2000 g/ha,Morningglory [18],100%
same,pest or weed control at 2000 g/ha,Velvetleaf [19],100%
same,pest or weed control at 2000 g/ha,Barnyardgrass [20],70%
same,pest or weed control at 2000 g/ha,Green Foxtail [21],40%
same,pest or weed control at 2000 g/ha,Johnsongrass [22],70%
"CCCn1nnn(-c2cc(N(S(=O)(=O)CC)S(=O)(=O)CC)c(Cl)cc2F)c1=O [Compound 49, 1-[4-Chloro-2-fluoro-5-[bis-(N--ethylsulfonyl)amino]phenyl]-4,5-dihydro-4-propyl-5H--tetrazol-5-one]",plant injury at 2000 g/ha,Cotton [1],90%
same,plant injury at 2000 g/ha,Soybean [2],20%
same,plant injury at 2000 g/ha,Field Corn [3],90%
same,plant injury at 2000 g/ha,Rice [4],70%
same,plant injury at 2000 g/ha,Wheat [5],95%
same,pest or weed control at 2000 g/ha,Field Bindweed [6],80%
same,pest or weed control at 2000 g/ha,Morningglory [7],70%
same,pest or weed control at 2000 g/ha,Velvetleaf [8],100%
same,pest or weed control at 2000 g/ha,Barnyardgrass [9],100%
same,pest or weed control at 2000 g/ha,Green Foxtail [10],100%
same,pest or weed control at 2000 g/ha,Johnsongrass [11],80%
same,plant injury at 2000 g/ha,Cotton [12],100%
same,plant injury at 2000 g/ha,Soybean [13],50%
same,plant injury at 2000 g/ha,Field Corn [14],80%
same,plant injury at 2000 g/ha,Rice [15],50%
same,plant injury at 2000 g/ha,Wheat [16],80%
same,pest or weed control at 2000 g/ha,Field Bindweed [17],80%
same,pest or weed control at 2000 g/ha,Morningglory [18],90%
same,pest or weed control at 2000 g/ha,Velvetleaf [19],100%
same,pest or weed control at 2000 g/ha,Barnyardgrass [20],95%
same,pest or weed control at 2000 g/ha,Green Foxtail [21],95%
same,pest or weed control at 2000 g/ha,Johnsongrass [22],90%
"CCN(c1cc(-n2nnn(CCCF)c2=O)c(F)cc1Cl)S(=O)(=O)CC [Compound 13, 1-[4-chloro-2-fluoro-5-[(N--ethyl-N--ehtylsulfonyl)amino]phenyl]-1,4-dihydro-4-(3-fluoropropyl)-5H--tetrazol-5-one]",plant injury at 1000 g/ha,Cotton [1]; 1.0 kg/ha,95%
same,plant injury at 1000 g/ha,Soybean [2]; 1.0 kg/ha,95%
same,plant injury at 1000 g/ha,Field Corn [3]; 1.0 kg/ha,100%
same,plant injury at 1000 g/ha,Rice [4]; 1.0 kg/ha,100%
same,plant injury at 1000 g/ha,Wheat [5]; 1.0 kg/ha,100%
same,pest or weed control at 1000 g/ha,Field Bindweed [6]; 1.0 kg/ha,100%
same,pest or weed control at 1000 g/ha,Morningglory [7]; 1.0 kg/ha,95%
same,pest or weed control at 1000 g/ha,Velvetleaf [8]; 1.0 kg/ha,100%
same,pest or weed control at 1000 g/ha,Barnyardgrass [9]; 1.0 kg/ha,100%
same,pest or weed control at 1000 g/ha,Green Foxtail [10]; 1.0 kg/ha,100%
same,pest or weed control at 1000 g/ha,Johnsongrass [11]; 1.0 kg/ha,100%
same,plant injury at 1000 g/ha,Cotton [12]; 1.0 kg/ha,100%
same,plant injury at 1000 g/ha,Soybean [13]; 1.0 kg/ha,95%
same,plant injury at 1000 g/ha,Field Corn [14]; 1.0 kg/ha,100%
same,plant injury at 1000 g/ha,Rice [15]; 1.0 kg/ha,100%
same,plant injury at 1000 g/ha,Wheat [16]; 1.0 kg/ha,100%
same,pest or weed control at 1000 g/ha,Field Bindweed [17]; 1.0 kg/ha,100%
same,pest or weed control at 1000 g/ha,Morningglory [18]; 1.0 kg/ha,100%
same,pest or weed control at 1000 g/ha,Velvetleaf [19]; 1.0 kg/ha,100%
same,pest or weed control at 1000 g/ha,Barnyardgrass [20]; 1.0 kg/ha,100%
same,pest or weed control at 1000 g/ha,Green Foxtail [21]; 1.0 kg/ha,100%
same,pest or weed control at 1000 g/ha,Johnsongrass [22]; 1.0 kg/ha,100%
